Laboratory results: patent publication US20210395327A1, “Growth Hormone-Releasing Hormone Antagonists and Uses Thereof” (United States Government As Represented By The Department …, priority 2019, published 2021)
Where two headings read alike, the source gives them in different places. Non-standard residues stand in square brackets, D forms with d. Residues, ends and D or L forms follow the SMILES beside them. *: point of attachment. Phe(F5) = N[C@@H](Cc1c(F)c(F)c(F)c(F)c1F)C(=O)O; Phe(4-Cl) = N[C@@H](Cc1ccc(Cl)cc1)C(=O)O; hArg = N=C(N)NCCCC[C@H](N)C(=O)O; 12Ado = NCCCCCCCCCCCC(=O)O; Nle = CCCC[C@H](N)C(=O)O; Orn = NCCC[C@H](N)C(=O)O; Abu = CC[C@H](N)C(=O)O; PhAc = O=C(Cc1ccccc1)*

Assays:
[1] = system: KATOIII stomach cancer cells; test: In vitro cell viability, KATOIII; assay type: cell-based, human; conditions: antagonist 5 μM for 72 h, cell proliferation assay; MIA602 = 1
Description: (§1) The inhibitory effects of the various synthesized GHRH antagonists were tested in cell proliferation assays in various human cancer cell lines including stomach cancer (KATOIII, N87), colon cancer (HT-29), urothelial cancer (J82, RT4), pancreatic cancer (PANC-1, CFPAC-1), prostatic cancer (PC3), breast cancer (MX-1, HCC1806), ovarian cancer (SK-OV-3, OVCAR-3) and lung cancer (HCC827, H460).
(§2) Cell culture. Human cancer cell lines including pancreatic (PANC-1 and CFPAC-1), lung (HCC827 and H460), stomach (NCI-N87 and KATOIII), urothelial (J82, RT4), prostatic (PC3), breast (MX-1 and HCC 1806), colorectal (HT-29), and ovarian (SK-OV-3 and OVCAR-3) were obtained from the American Type Culture Collection (ATCC) and cultured at 37° C. in a humidified 95% air/5% CO2 atmosphere in the medium recommended by ATCC.
(§3) In vitro cell viability. Cell viability was analyzed as follows: cancer cells including pancreatic (PANC-1 and CFPAC-1), lung (HCC827 and H460), stomach (NCI-N87 and KATOIII), urothelial (J82, RT4), prostatic (PC3) and breast (MX-1 and HCC 1806), colorectal (HT-29) and ovarian (SK-OV-3 and OVCAR-3) were grown on 96 well plates to ˜60% confluence, the cells were starved for 24 h in culture medium containing 0.5% FBS. Cells were then treated with GHRH antagonists MIA602 AVR compounds at concentrations of 1, 2.5 or 5 μM, or vehicle (0.1% DMSO) in quintuplicates for 72 hours. The medium was replaced every 48 hours. Cell viability was measured using CellTiter 96 aqueous one solution kit (Promega). Inhibitory effects of tested AVR compounds in comparison to that of MIA602 are presented as inhibitory potency.
(§4) Inhibitory effects of selected AVR compounds in comparison to that of MIA602 are presented as inhibitory potency (e.g., percentage of inhibition). […] The cell lines tested including lung cancer HCC827 (FIG. 2A), pancreatic cancer CFPAC-1 (FIG. 2B), stomach cancer N87 (FIG. 2C), colon cancer HT-29 (FIG. 2D), breast cancers MX-1 and HCC1806 (FIGS. 2 E, F). Based on the results of cell proliferation assay after cancer cells were treated with antagonist at concentration of 5 μM for 72H, the relative inhibitory potency of AVR antagonists in comparison to MIA-602 is summarized in Table 3 A and B. Over 60 AVR compounds were tested in 12 cancer cell lines.

[2] = system: J82 urothelial cancer cells; test: In vitro cell viability, J82; assay type: cell-based, human; conditions: antagonist 5 μM for 72 h, cell proliferation assay; MIA602 = 1
Description: as §1, §2, §3, §4

[3] = target: T1, membrane GHRH-receptors on human anterior pituitary cells (Homo sapiens, UniProt Q02643); test: Receptor binding, displacement of 125I-[His1,Nle27]-hGH-RH(1-32)NH2 on human pituitary membranes
T1 construct: Human pituitary was purchased from the National Hormone and Peptide Program; tissue National Hormone and Peptide Program; host or cells: human pituitary (membrane fractions)
T1 sequence (Q02643 23-423): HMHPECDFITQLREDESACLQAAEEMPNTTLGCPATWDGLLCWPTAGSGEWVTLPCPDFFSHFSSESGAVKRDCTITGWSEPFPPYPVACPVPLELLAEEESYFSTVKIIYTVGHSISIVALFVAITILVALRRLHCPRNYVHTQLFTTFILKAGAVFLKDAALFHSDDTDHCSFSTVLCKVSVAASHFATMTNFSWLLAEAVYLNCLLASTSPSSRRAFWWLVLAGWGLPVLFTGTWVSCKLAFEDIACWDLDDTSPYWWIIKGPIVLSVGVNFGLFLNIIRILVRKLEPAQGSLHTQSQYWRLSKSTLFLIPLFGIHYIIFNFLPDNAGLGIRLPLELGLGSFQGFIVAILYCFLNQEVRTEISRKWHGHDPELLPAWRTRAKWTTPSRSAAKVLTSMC
Description: Receptor binding affinities in vitro. Preparation of human pituitary membrane fractions and receptor binding of analogs of GH-RH were performed (Halmos G, Rekasi Z, Szoke B, Schally A V. (1993) Receptor 3:87-97). Human pituitary was purchased from the National Hormone and Peptide Program. […] Relative affinities compared to hGH-RH(1-29)NH2 were calculated as the ratio of IC50 (dose causing 50% inhibition of specific binding to receptors) of the tested peptides to the IC50 of hGH-RH(1-29)NH2. The values were calculated from technical duplicate tubes.
Nineteen new AVR analogs of GHRH were tested in the receptor binding assay. Table 6 presents the IC50 values of GHRH antagonists to membrane GHRH-receptors binding on human anterior pituitary cells.

[4] = system: CFPAC-1 pancreatic cancer cells; test: In vitro cell viability, CFPAC-1; assay type: cell-based, human; conditions: antagonist 5 μM for 72 h, cell proliferation assay; MIA602 = 1
Description: as §1, §2, §3, §4
(§5) Based on the results of cell proliferation assay after cancer cells were treated with antagonist at concentration of 5 µM for 72H, * at concentration of 2 µM for 72 H.

[5] = system: PANC-1 pancreatic cancer cells; test: In vitro cell viability, PANC-1; assay type: cell-based, human; conditions: antagonist 5 μM for 72 h, cell proliferation assay; MIA602 = 1
Description: as §1, §2, §3, §4

HCC827 lung cancer cells = test: In vitro cell viability, HCC827; assay type: cell-based, human; conditions: antagonist 5 μM for 72 h, cell proliferation assay; MIA602 = 1
Description: as §1, §2, §3, §4, §5

[6] = system: NCI-N87 stomach cancer cells; test: In vitro cell viability (CellTiter 96), N87; assay type: cell-based, human; conditions: antagonist 5 μM for 72 h, cell proliferation assay; MIA602 = 1
Description: as §1, §2, §3, §4, §5

[7] = system: RT4 urothelial cancer cells; test: In vitro cell viability, RT4; assay type: cell-based, human; conditions: antagonist 5 μM for 72 h, cell proliferation assay; MIA602 = 1
Description: as §1, §2, §3
(§6) Inhibitory effects of selected AVR compounds in comparison to that of MIA602 are presented as inhibitory potency (e.g., percentage of inhibition). […] The cell lines tested including lung cancer HCC827 (FIG. 2A), pancreatic cancer CFPAC-1 (FIG. 2B), stomach cancer N87 (FIG. 2C), colon cancer HT-29 (FIG. 2D), breast cancers MX-1 and HCC1806 (FIGS. 2 E, F). […]

MX-1 breast cancer cells = test: In vitro cell viability, MX-1; assay type: cell-based, human; conditions: antagonist 5 μM for 72 h, cell proliferation assay; MIA602 = 1
Description: as §1, §2, §3, §4, §5

[8] = system: HCC1806 breast cancer cells; test: In vitro cell viability, HCC1806; assay type: cell-based, human; conditions: antagonist 5 μM for 72 h, cell proliferation assay; MIA602 = 1
Description: as §1, §2, §3, §4, §5

[9] = system: PC3 prostatic cancer cells; test: In vitro cell viability, PC3; assay type: cell-based, human; conditions: antagonist 5 μM for 72 h, cell proliferation assay; MIA602 = 1
Description: as §1, §2, §3, §6

SMILES	relative inhibitory potency in comparison to MIA-602, Stomach KATOIII [1]	relative inhibitory potency in comparison to MIA-602, Urothelial J82 [2]	IC50 [3] [nM]	relative inhibitory potency in comparison to MIA-602, Pancreatic CFPAC-1 [4]	relative inhibitory potency in comparison to MIA-602, Pancreatic Panc-1 [5]	relative inhibitory potency in comparison to MIA-602, Lung IICC827 (HCC827 lung cancer cells)	relative inhibitory potency in comparison to MIA-602, Stomach N87 [6]	IC50 ([3]; membrane receptors on human anterior pituitary cells, mean of two to three determinations, read-out: IC50) [nM]	relative inhibitory potency in comparison to MIA-602, Urothelial RT4 [7]	relative inhibitory potency in comparison to MIA-602, Breast MX-1 (MX-1 breast cancer cells)	relative inhibitory potency in comparison to MIA-602, Breast IICC1806 [8]	relative inhibitory potency in comparison to MIA-602, Prostatic PC3 [9]
CCCC[C@H](NC(=O)[C@@H](NC(=O)[C@H](CC(=O)O)NC(=O)[C@H](CCC(N)=O)NC(=O)[C@H](CC(C)C)NC(=O)[C@H](CC(C)C)NC(=O)[C@H](CCCN)NC(=O)[C@H](Cc1c[nH]cn1)NC(=O)[C@H](C)NC(=O)[C@H](CO)NC(=O)[C@H](CC(C)C)NC(=O)[C@H](CCC(N)=O)NC(=O)[C@H](CC)NC(=O)[C@H](CC(C)C)NC(=O)[C@@H](NC(=O)[C@H](CCCCN)NC(=O)[C@H](CCCNC(=N)N)NC(=O)[C@H](Cc1c(F)c(F)c(F)c(F)c1F)NC(=O)[C@H](CCCNC(=N)N)NC(=O)[C@H](C)NC(=O)[C@@H](NC(=O)[C@H](Cc1ccc(Cl)cc1)NC(=O)[C@@H](NC(=O)[C@H](C)NC(=O)[C@H](CC(=O)O)NC(=O)[C@@H](CCCNC(=N)N)NC(=O)[C@H](Cc1ccc(O)cc1)NC(=O)CCCCCCCCCCCNC(=O)Cc1ccccc1)[C@@H](C)CC)[C@@H](C)O)C(C)C)[C@@H](C)CC)C(=O)N[C@H](CCCNC(=N)N)C(=O)N[C@@H](CCCCNC(=N)N)C(N)=O [AVR-116, PhAC-Ada-Tyr-DArg-Asp-Ala-Ile-Cpa-Thr-Ala-Arg-5FPhe-Arg-Lys-Val-Leu-Abu-Gln-Leu-Ser-Ala-His-Orn-Leu-Leu-Gln-Asp-Ile-Nle-DArg-Har-NH2] ({PhAc-12Ado}-Y[dR]DAI[Phe(4-Cl)]TAR[Phe(F5)]RKVL[Abu]QLSAH[Orn]LLQDI[Nle][dR][hArg]-NH2)	1.202	3.034	0.5	1.445	1.208	2.470	2.484	–	–	–	–	–
CCCC[C@H](NC(=O)[C@@H](NC(=O)[C@H](CC(=O)O)NC(=O)[C@H](CCC(N)=O)NC(=O)[C@H](CC(C)C)NC(=O)[C@H](CC(C)C)NC(=O)[C@H](CCCN)NC(=O)[C@H](Cc1c[nH]cn1)NC(=O)[C@H](C)NC(=O)[C@H](CO)NC(=O)[C@H](CC(C)C)NC(=O)[C@H](CCC(N)=O)NC(=O)[C@H](CC)NC(=O)[C@H](CC(C)C)NC(=O)[C@@H](NC(=O)[C@H](CCCCN)NC(=O)[C@H](CCCNC(=N)N)NC(=O)[C@H](Cc1ccc(OC)cc1)NC(=O)[C@H](CCCNC(=N)N)NC(=O)[C@H](C)NC(=O)[C@@H](NC(=O)[C@H](Cc1ccc(Cl)cc1)NC(=O)[C@@H](NC(=O)[C@H](C)NC(=O)[C@H](CC(=O)O)NC(=O)[C@@H](CCCNC(=N)N)NC(=O)[C@H](Cc1ccc(O)cc1)NC(=O)CCCCCCCCCCCNC(=O)[C@H](N)Cc1ccccc1)[C@@H](C)CC)[C@@H](C)O)C(C)C)[C@@H](C)CC)C(=O)N[C@H](CCCNC(=N)N)C(=O)N[C@@H](CCCCNC(=N)N)C(N)=O [AVR-120, D-Phe-Ada-Tyr-DArg-Asp-Ala-Ile-Cpa-Thr-Ala-Arg-Tyr(Me)-Arg-Lys-Val-Leu-Abu-Gln-Leu-Ser-Ala-His-Orn-Leu-Leu-Gln-Asp-Ile-Nle-DArg-Har-NH2] (H-[dF][12Ado]Y[dR]DAI[Phe(4-Cl)]TARY(Me)RKVL[Abu]QLSAH[Orn]LLQDI[Nle][dR][hArg]-NH2)	1.271	4.841	–	1.617	1.306	1.423	2.339	0.48	1.611	–	–	–
CCCC[C@H](NC(=O)[C@@H](NC(=O)[C@H](CC(=O)O)NC(=O)[C@H](CCC(N)=O)NC(=O)[C@H](CC(C)C)NC(=O)[C@H](CC(C)C)NC(=O)[C@H](CCCCN)NC(=O)[C@H](CCCNC(=N)N)NC(=O)[C@H](C)NC(=O)[C@H](CO)NC(=O)[C@H](CC(C)C)NC(=O)[C@H](CCC(N)=O)NC(=O)[C@H](CC)NC(=O)[C@H](CC(C)C)NC(=O)[C@@H](NC(=O)[C@H](CCCCN)NC(=O)[C@H](CCCNC(=N)N)NC(=O)[C@H](Cc1ccc(O)cc1)NC(=O)[C@H](CCCNC(=N)N)NC(=O)[C@H](C)NC(=O)[C@@H](NC(=O)[C@H](Cc1ccc(Cl)cc1)NC(=O)[C@@H](NC(=O)[C@H](C)NC(=O)[C@H](CC(=O)O)NC(=O)[C@@H](CCCNC(=N)N)NC(=O)[C@H](Cc1ccc(O)cc1)NC(=O)CCCCCCCCCCCNC(=O)Cc1ccccc1)[C@@H](C)CC)[C@@H](C)O)C(C)C)[C@@H](C)CC)C(=O)N[C@H](CCCNC(=N)N)C(=O)N[C@@H](CCCCNC(=N)N)C(N)=O [AVR-107, PhAC-Ada-Tyr-DArg-Asp-Ala-Ile-Cpa-Thr-Ala-Arg-Tyr-Arg-Lys-Val-Leu-Abu-Gln-Leu-Ser-Ala-Arg-Lys-Leu-Leu-Gln-Asp-Ile-Nle-DArg-Har-NH2] ({PhAc-12Ado}-Y[dR]DAI[Phe(4-Cl)]TARYRKVL[Abu]QLSARKLLQDI[Nle][dR][hArg]-NH2)	1.295	–	0.61	1.080	1.160	–	–	–	–	1.010	0.950	0.800
